Patent US6720346B2, “Thiazole benzamide derivatives and pharmaceutical compositions for inhibiting cell proliferation” (Agouron Pharmaceuticals, Inc., priority 2001, dated 2004)
Where a name gives a salt, the structure may show the parent alone.

Legend:
human CDK4/cyclin D3 = target: T1, human CDK4/cyclin D3 (Homo sapiens, UniProt P11802); test: Inhibition of CDK4/cyclin D retinoblastoma kinase activity (Ki; % inhibition); format: biochemical; conditions: for Ki: apparent Ki, CDK4/cyclin D3, Rb substrate
T1 construct: made in house; host or cells: insect cells co-infected with baculovirus vectors
How it was run: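 Radiometric filter-binding read-out: Rb residues 386-928 phosphorylated by 5 nM CDK4/cyclin D3(1-264) from baculovirus-infected insect cells, 25 μM ATP, HEPES pH 7.4, 30 °C. Run 20 min, or 60 min for tight-binding inhibitors. Screening at 30 nM theoretical compound; apparent Ki by competitive-inhibition fitting.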

HCT-116 cell line = test: Inhibition of cell growth, MTT tetrazolium salt assay; format: cell-based; conditions: for IC50: Homo sapiens, HCT-116, 120 h, MTT, three to five days
How it was run: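 HCT-116 cells in McCoy's 5A were dosed 4 h after plating with compounds in 0.5% DMSO and grown 3–5 days at 37 °C. Then 0.2 mg/mL MTT was added for 4 h and formazan absorbance read at 540 nm. IC50/IC90 came from semi-log plots against DMSO-only controls.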

CDK2/cyclin A = target: T2, CDK2/cyclin A (Homo sapiens, UniProt P24941); test: Inhibition of CDK2/cyclin A retinoblastoma kinase activity (Ki; % inhibition); format: biochemical; conditions: for Ki: apparent Ki, CDK2/cyclin A, Rb substrate
T2 construct: made in house; host or cells: CDK2: insect cells (baculovirus); cyclin A: E. coli
How it was run: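 Apparent Ki values came from fitting concentration-dependent activity data to competitive (or competitive tight-binding) models, and % inhibition from single 30 nM screens of library compounds. Activity was measured as ³²P/³³P incorporation from 25 μM ATP into an Rb substrate by 10 or 19 nM CDK2/delta cyclin A at 30 °C over 60–75 min, pH 7.4.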

[1] = HCT-116 cells, 0.25 μM compound

T1 sequence (P11802 whole entry): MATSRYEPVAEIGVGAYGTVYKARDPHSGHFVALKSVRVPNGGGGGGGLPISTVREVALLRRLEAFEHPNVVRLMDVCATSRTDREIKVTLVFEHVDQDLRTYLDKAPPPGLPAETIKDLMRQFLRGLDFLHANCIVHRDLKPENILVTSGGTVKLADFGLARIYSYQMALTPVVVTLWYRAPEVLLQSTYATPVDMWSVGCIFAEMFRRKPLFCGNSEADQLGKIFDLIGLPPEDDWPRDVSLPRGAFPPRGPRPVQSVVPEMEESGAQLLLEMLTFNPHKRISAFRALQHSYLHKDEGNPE
T1 sequence (P30281 1-264 partner limits assumed): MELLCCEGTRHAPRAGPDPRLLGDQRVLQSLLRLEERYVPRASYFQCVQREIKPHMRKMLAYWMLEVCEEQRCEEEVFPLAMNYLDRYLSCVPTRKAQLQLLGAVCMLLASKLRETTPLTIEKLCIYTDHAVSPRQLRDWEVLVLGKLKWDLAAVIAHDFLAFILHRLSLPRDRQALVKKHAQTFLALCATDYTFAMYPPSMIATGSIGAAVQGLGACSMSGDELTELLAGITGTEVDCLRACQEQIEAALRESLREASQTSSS

| CDK4 % Inhibition at 0.03 μM (human CDK4/cyclin D3; 0.03 μM compound) [%] | CDK2 % Inhibition at 0.03 μM (CDK2/cyclin A; 0.03 μM compound) [%] | CDK4 % Inhibition at 0.03 μM (human CDK4/cyclin D3; at 0.03 μM) [%] | CDK2 % Inhibition at 0.03 μM (CDK2/cyclin A; at 0.03 μM) [%] | SMILES | HCT-116 % Inhibition at 0.1 μM (HCT-116 cell line; HCT-116 cells, 0.1 μM compound) [%] | HCT-116 % Inhibition at 0.25 μM (HCT-116 cell line; [1]) [%] | HCT-116 % Inhibition at 0.25 μM (HCT-116 cell line; HCT-116, at 0.25 μM) [%] | further results |
| --- | --- | --- | --- | --- | --- | --- | --- | --- |
| 27 | 30 |  |  | CC(O)c1cccc(NC(=O)c2ccc(Nc3nc(N)c(C(=O)c4c(F)cccc4F)s3)cc2)c1 (stereo not drawn) [Example G222] | 8 | 61 |  |  |
|  |  | 19 | 19 | COC(=O)c1ccc(NC(=O)c2ccc(Nc3nc(N)c(C(=O)c4c(F)cccc4F)s3)cc2)cc1 [Example G61] |  |  | 58 |  |
|  |  | 7 | 3 | Cc1cc(NC(=O)c2ccc(Nc3nc(N)c(C(=O)c4c(F)cccc4F)s3)cc2)ccc1Cl [Example G38] |  |  | 65 |  |
|  |  | −4 | −20 | CC(C)C(C)NC(=O)c1ccc(Nc2nc(N)c(C(=O)c3c(F)cccc3F)s2)cc1 (stereo not drawn) [Example G89] |  |  | 59 | HCT-116 % Inhibition at 0.1 μM (HCT-116 cell line; HCT-116, at 0.1 μM): 30% |
|  |  |  |  | Cc1ccc(CNC(=O)c2ccc(Nc3nc(N)c(C(=O)c4c(F)cccc4F)s3)cc2)o1 [Example A6, 4-[4-Amino-5-(2,6-difluoro-benzoyl)-thiazol-2-ylamino]-N-(5-methyl-furan-2-ylmethyl)-benzamide] |  |  |  | Ki (human CDK4/cyclin D3): 15 nM; IC50 (HCT-116 cell line): 220 nM; Ki (CDK2/cyclin A): 7.5 nM |
|  |  | 7 | 16 | Nc1nc(Nc2ccc(C(=O)Nc3cccc4cnccc34)cc2)sc1C(=O)c1c(F)cccc1F [Example G83] |  |  | 64 |  |
|  |  | 36 | 30 | Nc1nc(Nc2ccc(C(=O)NCc3ccccc3)cc2)sc1C(=O)c1c(F)cccc1F [Example G181] |  |  | 75 | HCT-116 % Inhibition at 0.1 μM (HCT-116 cell line; HCT-116, at 0.1 μM): 28% |
| −1 | 10 |  |  | Nc1nc(Nc2ccc(C(=O)Nc3cccc(SC(F)(F)F)c3)cc2)sc1C(=O)c1c(F)cccc1F [Example G377] | 25 | 55 |  |  |
| 4 | −12 |  |  | CCCN(CCc1ccccn1)C(=O)c1ccc(Nc2nc(N)c(C(=O)c3c(F)cccc3F)s2)cc1 [Example G322] | 13 | 50 |  |  |
| 19 | 8 |  |  | CCCCN(C)C(=O)c1ccc(Nc2nc(N)c(C(=O)c3c(F)cccc3F)s2)cc1 [Example G218] | 11 | 52 |  |  |
|  |  | 4 | 5 | CCOC(=O)c1ccc(NC(=O)c2ccc(Nc3nc(N)c(C(=O)c4c(F)cccc4F)s3)cc2)cc1 [Example G190] |  |  | 55 | HCT-116 % Inhibition at 0.1 μM (HCT-116 cell line; HCT-116, at 0.1 μM): 9% |
| 19 | 9 |  |  | CCN(CC)C(=O)c1ccc(Nc2nc(N)c(C(=O)c3c(F)cccc3F)s2)cc1 [Example C232] | 9 | 53 |  |  |
| 18 | 13 |  |  | CCOc1ccccc1CNC(=O)c1ccc(Nc2nc(N)c(C(=O)c3c(F)cccc3F)s2)cc1 [Example G285] | 1 | 60 |  |  |
|  |  | 10 | −3 | Nc1nc(Nc2ccc(C(=O)N3CCSC3)cc2)sc1C(=O)c1c(F)cccc1F [Example G33] |  |  | 54 |  |
|  |  | 16 | 6 | Nc1nc(Nc2ccc(C(=O)NC3CCCC3)cc2)sc1C(=O)c1c(F)cccc1F [Example G131] |  |  | 58 | HCT-116 % Inhibition at 0.1 μM (HCT-116 cell line; HCT-116, at 0.1 μM): 0% |
|  |  | 24 | 7 | Nc1nc(Nc2ccc(C(=O)NCC3CCCO3)cc2)sc1C(=O)c1c(F)cccc1F (stereo not drawn) [Example G116] |  |  | 46 | HCT-116 % Inhibition at 0.1 μM (HCT-116 cell line; HCT-116, at 0.1 μM): 0% |
|  |  | 10 | −14 | Nc1nc(Nc2ccc(C(=O)N3CCN(CCCO)CC3)cc2)sc1C(=O)c1c(F)cccc1F [Example G12] |  |  | 48 |  |

| CDK4 % Inhibition at 0.03 μM (human CDK4/cyclin D3; 0.03 μM compound) [%] | CDK2 % Inhibition at 0.03 μM (CDK2/cyclin A; 0.03 μM compound) [%] | CDK4 % Inhibition at 0.03 μM (human CDK4/cyclin D3; at 0.03 μM) [%] | CDK2 % Inhibition at 0.03 μM (CDK2/cyclin A; at 0.03 μM) [%] | SMILES | HCT-116 % Inhibition at 0.1 μM (HCT-116 cell line; HCT-116 cells, 0.1 μM compound) [%] | HCT-116 % Inhibition at 0.25 μM (HCT-116 cell line; [1]) [%] | HCT-116 % Inhibition at 0.25 μM (HCT-116 cell line; HCT-116, at 0.25 μM) [%] | further results |
| --- | --- | --- | --- | --- | --- | --- | --- | --- |
|  |  |  |  | CN1CC[C@@H](NC(=O)c2ccc(Nc3nc(N)c(C(=O)c4c(F)cccc4F)s3)cc2)C1 [Example A30, 4-[4-Amino-5-(2,6-difluoro-benzoyl)-thiazol-2-ylamino]-N-(1-methyl-pyrrolidin-3R-yl)-benzamide] |  |  |  | Ki (human CDK4/cyclin D3): 7 nM; IC50 (HCT-116 cell line): 90 nM; Ki (CDK2/cyclin A): 69 nM |
|  |  | 26 | 20 | CN(CC#N)C(=O)c1ccc(Nc2nc(N)c(C(=O)c3c(F)cccc3F)s2)cc1 [Example G195] |  |  | 47 | HCT-116 % Inhibition at 0.1 μM (HCT-116 cell line; HCT-116, at 0.1 μM): 17% |
|  |  | 3 | 1 | Nc1nc(Nc2ccc(C(=O)N3CCCC(CO)C3)cc2)sc1C(=O)c1c(F)cccc1F (stereo not drawn) [Example G48] |  |  | 50 |  |
| −2 | −12 |  |  | CCN(C)C(=O)c1ccc(Nc2nc(N)c(C(=O)c3c(F)cccc3F)s2)cc1 [Example G290] | 2 | 39 |  |  |
| −2 | 2 |  |  | Nc1nc(Nc2ccc(C(=O)NCCc3cccc(C(F)(F)F)c3)cc2)sc1C(=O)c1c(F)cccc1F [Example G276] | 25 | 58 |  |  |
| 0 | −25 |  |  | CSc1ccc(NC(=O)c2ccc(Nc3nc(N)c(C(=O)c4c(F)cccc4F)s3)cc2)cc1 [Example G255] | 25 | 63 |  |  |
| −20 | −30 |  |  | CN(Cc1ccccc1Cl)C(=O)c1ccc(Nc2nc(N)c(C(=O)c3c(F)cccc3F)s2)cc1 [Example G259] | 21 | 46 |  |  |
|  |  | 6 | 9 | COC(=O)[C@H](C(C)C)N(C)C(=O)c1ccc(Nc2nc(N)c(C(=O)c3c(F)cccc3F)s2)cc1 [Example G77] |  |  | 51 |  |
|  |  | 6 | −12 | CN(CCc1ccccc1)C(=O)c1ccc(Nc2nc(N)c(C(=O)c3c(F)cccc3F)s2)cc1 [Example G11] |  |  | 49 |  |
|  |  |  |  | CNC(C)(C)CNC(=O)c1ccc(Nc2nc(N)c(C(=O)c3c(F)cccc3F)s2)cc1 [Example A18, 4-{4-Amino-5-[1-(2,6-difluoro-phenyl)-methanoyl]-thiazol-2-ylamino}-N-(2-methyl-2-methylamino-propyl)-benzamide Acetic Acid Salt] |  |  |  | Ki (human CDK4/cyclin D3): 6 nM; IC50 (HCT-116 cell line): 920 nM; Ki (CDK2/cyclin A): 190 nM |
|  |  | 17 | 15 | CC(O)CNC(=O)c1ccc(Nc2nc(N)c(C(=O)c3c(F)cccc3F)s2)cc1 (stereo not drawn) [Example G110] |  |  | 52 | HCT-116 % Inhibition at 0.1 μM (HCT-116 cell line; HCT-116, at 0.1 μM): 0% |
| 11 | −6 |  |  | Nc1nc(Nc2ccc(C(=O)NCCc3cccc(F)c3)cc2)sc1C(=O)c1c(F)cccc1F [Example G349] | 31 | 48 |  |  |
|  |  |  |  | CC(C)N(CCNC(=O)c1ccc(Nc2nc(N)c(C(=O)c3c(F)cccc3F)s2)cc1)C(C)C [Example A23, 4-[4-Amino-5-(2,6-difluoro-benzoyl)-thiazol-2-ylamino]-N-(2-diisopropylamino-ethyl)-benzamide] |  |  |  | Ki (human CDK4/cyclin D3): 8 nM; IC50 (HCT-116 cell line): 100 nM; Ki (CDK2/cyclin A): 130 nM |
| 1 | −27 |  |  | CCN(CC)CCCN(C)C(=O)c1ccc(Nc2nc(N)c(C(=O)c3c(F)cccc3F)s2)cc1 [Example G260] | 30 | 59 |  |  |
|  |  | 30 | 7 | CCCCNC(=O)c1ccc(Nc2nc(N)c(C(=O)c3c(F)cccc3F)s2)cc1 [Example G186] |  |  | 51 | HCT-116 % Inhibition at 0.1 μM (HCT-116 cell line; HCT-116, at 0.1 μM): 14% |
|  |  |  |  | Nc1nc(Nc2ccc(C(=O)Nc3ccc(CCO)cc3)cc2)sc1C(=O)c1c(F)cccc1F [Example A24, 4-[4-Amino-5-(2,6-difluoro-benzoyl)-thiazol-2-ylamino]-N-[4-(2-hydroxy-ethyl)-phenyl]-benzamide] |  |  |  | Ki (human CDK4/cyclin D3): 94 nM; IC50 (HCT-116 cell line): 160 nM; Ki (CDK2/cyclin A): 100 nM |
|  |  | 43 | 51 | Nc1nc(Nc2ccc(C(=O)NCCOc3ccccc3)cc2)sc1C(=O)c1c(F)cccc1F [Example G113] |  |  | 80 | HCT-116 % Inhibition at 0.1 μM (HCT-116 cell line; HCT-116, at 0.1 μM): 26% |
